25 compounds from patent US11034698B2, “Pyrazolo[ 1,5a]pyrimidine derivatives as IRAK4 modulators” (priority 2017, dated 2021) can be followed below.

The term Ki denotes the equilibrium dissociation constant of an inhibitor or competing ligand from its target.

One experiment deals with human IRAK4 (Homo sapiens (Human), UniProt Q9NWZ3). The experiment can be described thus: IRAK4 kinase inhibition, Transcreener fluorescence polarization (ADP). Format: biochemical.
human IRAK4, sequence (Q9NWZ3 whole entry): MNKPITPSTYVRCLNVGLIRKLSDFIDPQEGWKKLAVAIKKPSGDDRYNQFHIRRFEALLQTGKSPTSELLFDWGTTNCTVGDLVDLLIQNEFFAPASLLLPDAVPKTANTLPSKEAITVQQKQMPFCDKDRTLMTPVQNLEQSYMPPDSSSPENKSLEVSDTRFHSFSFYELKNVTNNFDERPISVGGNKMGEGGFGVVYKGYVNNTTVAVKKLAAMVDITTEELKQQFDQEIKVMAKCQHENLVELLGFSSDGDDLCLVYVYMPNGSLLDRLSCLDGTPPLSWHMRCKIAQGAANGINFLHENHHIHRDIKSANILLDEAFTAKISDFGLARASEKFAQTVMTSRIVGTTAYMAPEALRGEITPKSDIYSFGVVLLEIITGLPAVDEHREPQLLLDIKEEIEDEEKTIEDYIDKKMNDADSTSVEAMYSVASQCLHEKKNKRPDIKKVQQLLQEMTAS
Details: not given
The procedure, abridged: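 The enzyme was full-length human IRAK4 with an N-terminal His6 tag, expressed in insect cells. Kinase activity was read as ADP product by Transcreener fluorescence polarization.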
Take `CC1(C)Cc2cc(NC(=O)c3cnn4cccnc34)c(OC[C@H]3C[C@H]4NCCO[C@@H]4C3)cc2O1` (single isomer, unassigned) [Example 33]: the Ki amounted to 230 nM.

`CC(C)(O)[C@H](F)CN1Cc2cc(NC(=O)c3cnn4cccnc34)c(O[C@H]3CCOC3)cc2C1=O` (single isomer, unassigned) [Example 84] yielded a Ki of 0.49 nM.

`CCN1C[C@@H](COc2cc3c(cc2NC(=O)c2cnn4cccnc24)CC(C)(C)O3)CC1=O` (single isomer, unassigned) [Example 23] showed a Ki of 250 nM.

On to `CC1(C)Cc2cc(NC(=O)c3cnn4cccnc34)c(N3CCN(C[C@H]4CCCC(=O)N4)CC3)cc2O1` (single isomer, unassigned) [Example 7], for which affinity was put at a Ki of 10 nM.

Consider `CC1(C)Cc2cc(NC(=O)c3cnn4cccnc34)c(OC[C@H]3Cc4ccccc4[C@H]3N)cc2O1` (single isomer, unassigned) [Example 27], for which the affinity, expressed as Ki, was 670 nM.

The same experiment, now with this note: recombinant full-length His6-IRAK4 1.25 nM; 125 uM ATP; 125 uM peptide; 90 min; ATP Km 642 uM; read-out: IRAK4 Ki.
On to `CO[C@@H]1C[C@H]2CN(c3cc4c(cc3NC(=O)c3cnn5cccnc35)CN(C[C@@H](F)C(C)(C)O)C4=O)CCN2C1` [Example 101, N-(2-((R)-2-Fluoro-3-hydroxy-3-methylbutyl)-6-((7R,8aS)-7-methoxyhexahydropyrrolo[1,2-a]pyrazin-2(1H)-yl)-1-oxoisoindolin-5-yl)pyrazolo[1,5-a]pyrimidine-3-carboxamide], for which the Ki was found to be 12 nM.

Turning to `CC(C)N1Cc2cc(NC(=O)c3cnn4cccnc34)c(N(C)C)cc2C1=O` [Example 95, N-[6-(Dimethylamino)-2-isopropyl-1-oxo-isoindolin-5-yl]pyrazolo[1,5-a]pyrimidine-3-carboxamide], the Ki is 1.9 nM.

For `CC(C)(O)[C@H](F)CN1Cc2cc(NC(=O)c3cnn4cccnc34)c(O[C@@H]3CCOC3)cc2C1=O` [Example 83, N-(2-((R)-2-Fluoro-3-hydroxy-3-methylbutyl)-1-oxo-6-(((R)-tetrahydrofuran-3-yl)oxy)isoindolin-5-yl)pyrazolo[1,5-a]pyrimidine-3-carboxamide], the Ki was found to be 0.71 nM.

With `CC(C)(O)[C@H](F)CN1Cc2cc(NC(=O)c3cnn4cccnc34)c(OCC3COC3)cc2C1=O` [Example 79, (R)-N-(2-(2-Fluoro-3-hydroxy-3-methylbutyl)-6-(oxetan-3-ylmethoxy)-1-oxoisoindolin-5-yl)pyrazolo[1,5-a]pyrimidine-3-carboxamide], the Ki is 0.97 nM.

`COc1cc2c(cc1NC(=O)c1cnn3ccc(N(C)C4CC4)nc13)CC(C)(C)O2` [Example 38, 5-(Cyclopropyl(methyl)amino)-N-(6-methoxy-2,2-dimethyl-2,3-dihvdrobenzofuran-5-yl)pyrazolo[1,5-a]pyrimidine-3-carboxamide]: the Ki was found to be 180 nM.

As for `CC(C)(O)c1cc2c(cc1NC(=O)c1cnn3cccnc13)CN(C[C@@H](F)C(C)(C)O)C2=O` [Example 148, (R)—N-(2-(2-Fluoro-3-hydroxy-3-methylbutyl)-6-(2-hydroxypropan-2-yl)-1-oxoisoindolin-5-yl)pyrazolo[1,5-a]pyrimidine-3-carboxamide], the Ki is 16 nM.

Consider `O=C(Nc1cc2c(cc1N1CCOCC1)N(CCCO)C(=O)CC2)c1cnn2cccnc12` [Example 48, N-(1-(3-Hydroxypropyl)-7-morpholino-2-oxo-1,2,3,4-tetrahydroquinolin-6-yl)pyrazolo[1,5-a]pyrimidine-3-carboxamide], for which the Ki was determined as 240 nM.

Consider `CC(C)(O)[C@H](F)CN1Cc2cc(NC(=O)c3cnn4cccnc34)c(O[C@H]3C[C@@H](Cl)C3)cc2C1=O` [Example 64, N-[6-(3-Chlorocyclobutoxy)-2-[(2R)-2-fluoro-3-hydroxy-3-methyl-butyl]-1-oxo-isoindolin-5-yl]pyrazolo[1,5-a]pyrimidine-3-carboxamide], for which the Ki was found to be 0.51 nM.

On to `C[C@@]1(CCC#N)COc2cc(N3CCOCC3)c(NC(=O)c3cnn4cccnc34)cc2C1` [Example 58, (S)—N-(3-(2-Cyanoethyl)-3-methyl-7-morpholinochroman-6-yl)pyrazolo[1,5-a]pyrimidine-3-carboxamide], for which the Ki came out at 19 nM.

On to `CCc1nc[nH]c1CN1CCN(c2cc3c(cc2NC(=O)c2cnn4cccnc24)CC(C)(C)O3)CC1` [Example 9, N-[6-[4-[(4-Ethyl-1H-imidazol-5-yl)methyl]piperazin-1-yl]-2,2-dimethyl-3H-benzofuran-5-yl]pyrazolo[1,5-a]pyrimidine-3-carboxamide], for which the Ki is 3.9 nM.

Regarding `CN(C)c1cc2c(cc1NC(=O)c1cnn3ccc(C(=O)NC4CC4)nc13)CN(C[C@@H](F)C(C)(C)O)C2=O` [Example 132, (R)—N^5-Cyclopropyl-N^3-(6-(dimethylamino)-2-(2-fluoro-3-hydroxy-3-methylbutyl)-1-oxoisoindolin-5-yl)pyrazolo[1,5-a]pyrimidine-3,5-dicarboxamide], the Ki worked out at 19 nM.

On to `CC1(C)Cc2cc(NC(=O)c3cnn4cccnc34)c(N3CCN(C[C@@H]4CCCC(=O)N4)CC3)cc2O1` [Example 6, (S)-N-(2,2-Dimethyl-6-(4-((6-oxopiperidin-2-yl)methyl)piperazin-1-yl)-2,3-dihydrobenzofuran-5-yl)pyrazolo[1,5-a]pyrimidine-3-carboxamide], for which the Ki was determined as 5.3 nM.

For the compound `CC(C)(O)[C@H](F)CN1Cc2cc(NC(=O)c3cnn4cccnc34)c(N3CCN(CC(F)(F)F)CC3)cc2C1=O` [Example 109, (R)-N-(2-(2-Fluoro-3-hydroxy-3-methylbutyl)-1-oxo-6-(4-(2,2,2-trifluoroethyl)piperazin-1-yl)isoindolin-5-yl)pyrazolo[1,5-a]pyrimidine-3-carboxamide], the Ki was 2.6 nM.

Regarding `CC(C)(O)[C@H](F)CN1Cc2cc(NC(=O)c3cnn4cccnc34)c(O[C@H]3C[C@@H](F)C3)cc2C1=O` [Example 61, N-[6-(3-Fluorocyclobutoxy)-2-[(2R)-2-fluoro-3-hydroxy-3-methyl-butyl]-1-oxo-isoindolin-5-yl]pyrazolo[1,5-a]pyrimidine-3-carboxamide], the Ki was found to be 0.28 nM.

Consider `O=C(Nc1cc2c(cc1N1CCOCC1)C(=O)N(CCN1CCCC1)C2)c1cnn2cccnc12` [Example 93, N-[6-Morpholino-1-oxo-2-(2-pyrrolidin-1-ylethyl)isoindolin-5-yl]pyrazolo[1,5-a]pyrimidine-3-carboxamide], for which the Ki was determined as 22 nM.

Regarding `O=C1CCc2cc(NC(=O)c3cnn4cccnc34)c(N3CCOCC3)cc2N1` [Example 46, N-(7-Morpholino-2-oxo-1,2,3,4-tetrahydroquinolin-6-yl)pyrazolo[1,5-a]pyrimidine-3-carboxamide], the Ki came to 42 nM.

Take `CC(C)(O)[C@H](F)CN1Cc2cc(NC(=O)c3cnn4cccnc34)c(C3COC3)cc2C1=O` [Example 147, N-[2-[(2R)-2-Fluoro-3-hydroxy-3-methyl-butyl]-6-(oxetan-3-yl)-1-oxo-isoindolin-5-yl]pyrazolo[1,5-a]pyrimidine-3-carboxamide]: the Ki was found to be 48 nM.

On to `Cc1ccc(-c2cc3c(cc2NC(=O)c2cnn4cccnc24)CC(C)(C)O3)nc1` [Example 145, N-[2,2-Dimethyl-6-(5-methyl-2-pyridyl)-3H-benzofuran-5-yl]pyrazolo[1,5-a]pyrimidine-3-carboxamide], for which the Ki was determined as 60 nM.

With `CC(C)(O)[C@H](F)CN1Cc2cc(NC(=O)c3cnn4cccnc34)c(O[C@H]3CCNC3)cc2C1=O` [Example 62, N-[2-[(2R)-2-Fluoro-3-hydroxy-3-methyl-butyl]-1-oxo-6-[(3S)-pyrrolidin-3-yl]oxy-isoindolin-5-yl]pyrazolo[1,5-a]pyrimidine-3-carboxamide], the Ki turned out to be 9.2 nM.

As for `CC1(C)Cc2cc(NC(=O)c3cnn4cccnc34)c(OC[C@H]3C[C@@H]4NCCO[C@H]4C3)cc2O1` [Example 30, N-(2,2-Dimethyl-6-(((4aS,6S,7aS)-octahydrocyclopenta[b][1,4]oxazin-6-yl)methoxy)-2,3-dihydrobenzofuran-5-yl)pyrazolo[1,5-a]pyrimidine-3-carboxamide], the Ki was found to be 66 nM.
